# Laboratory results reported in patent US11317627B2, “Soybean disease control composition and soybean disease control method” (priority 2015, dated 2022).
# How the values were obtained:
# [1] = test system: soybean rust fungus (Phakopsora pachyrhizi); test: Test on spore germination inhibition against soybean rust fungus; type: cell-based; details: single use, 25° C., 5 hours
# Experimental: Test Example 1: Test on Spore Germination Inhibition Against Soybean Rust Fungus (Phakopsora pachyrhizi)
# A spore suspension of soybean rust fungus was added to an aqueous chemical solution prepared so as to contain each test compound in a predetermined concentration and the whole was kept in a moist chamber at 25° C. for 5 hours. Thereafter, the presence of spore germination was investigated using a microscope, the spore germination rate was determined, and the spore germination inhibition rate was determined according to the following calculation formula. Spore germination inhibition rate=(1−a/b)×100 • a: spore germination rate in treated section, b: spore germination rate in untreated section Colby's formula=(X+Y)−XY/100 • X: spore germination inhibition rate in single use of ingredient (a) • Y: spore germination inhibition rate in single use of ingredient (b)
# Based on the obtained spore germination inhibition rate, the theoretical value (spore germination inhibition rate) was calculated using the Colby's formula. The theoretical value according to the Colby's formula was shown in brackets ( ) in Tables 1 to 6.
# In the case where the experimental value is higher than the theoretical value, the composition of the present invention has a synergistic effect on soybean rust fungus.
# Rhizoctonia solani = test: Test on mycelial growth inhibition effect against soybean Rhizoctonia rot; type: cell-based; details: single use, PSA, 20° C., 2 days
# Experimental: Test Example 2: Test on Mycelial Growth Inhibition Effect Against Soybean Rhizoctonia Rot (Rhizoctonia solani)
# A colony (4 mmϕ) obtained by preculture was inoculated to PSA containing a chemical agent of a predetermined concentration and, after culture at a room temperature of 20° C. for 2 days, the diameter of the grown colony was measured to determine a mycelial growth inhibition rate. Mycelial growth inhibition rate=(1−A/B)×100 • A: diameter of colony in treated section, B: diameter of colony in untreated section Colby's formula=(X+Y)−XY/100 • X: mycelial growth inhibition rate in single use of ingredient (a) • Y: mycelial growth inhibition rate in single use of ingredient (b)
# Based on the obtained experimental value of the mycelial growth inhibition rate, the theoretical value of the mycelial growth inhibition rate was calculated using the Colby's formula. The theoretical value according to the Colby's formula was shown in brackets ( ) in Tables 7 to 11.
# In the case where the experimental value is higher than the theoretical value, the composition of the present invention has a synergistic effect on Rhizoctonia solani.
# [2] = Phakopsora pachyrhizi, read-out: Spore germination inhibition rate
# [3] = Phakopsora pachyrhizi, 0.1 ppm, read-out: Spore germination inhibition rate
# [4] = Rhizoctonia solani, 48 h, read-out: Mycelial growth inhibition rate
# [5] = Rhizoctonia solani, 48 h, 0.1 ppm, read-out: Mycelial growth inhibition rate
# [6] = Rhizoctonia solani, 48 h, 1 ppm, read-out: Mycelial growth inhibition rate
SMILES,"inhibition at 0.01 ppm [1, 2]","inhibition at 0.1 ppm [1, 3]","inhibition at 1 ppm ([1]; Phakopsora pachyrhizi, 1 ppm, read-out: Spore germination inhibition rate)","inhibition at 0.001 ppm (Rhizoctonia solani; Rhizoctonia solani, 48 h, 0.001 ppm, read-out: Mycelial growth inhibition rate)",inhibition at 0.01 ppm (Rhizoctonia solani; [4]),inhibition at 0.1 ppm (Rhizoctonia solani; [5]),inhibition at 1 ppm (Rhizoctonia solani; [6]),Mycelial growth inhibition rate (Rhizoctonia solani; 0.1 ppm),Mycelial growth inhibition rate (Rhizoctonia solani; 1 ppm),Spore germination inhibition rate ([1]; 0.1 ppm),Spore germination inhibition rate ([1]; 1 ppm)
"OC(Cc1ccccc1Cl)(Cn1nc[nH]c1=S)C1(Cl)CC1 (stereo not shown) [Prothioconazole, prothioconazole]",37%,89%,–,–,–,–,–,–,–,–,–
"O=[N+]([O-])c1cc(C(F)(F)F)c(Cl)c([N+](=O)[O-])c1Nc1ncc(C(F)(F)F)cc1Cl [Fluazinam, fluazinam]",–,27%,71%,2%,14%,73%,88%,78%,92%,–,–
"CC(C)(C)C(O)(CCc1ccc(Cl)cc1)Cn1cncn1 (stereo not shown) [Tebuconazole, tebuconazole]",12%,88%,–,–,17%,31%,70%,–,–,–,–
"Cn1cc(C(=O)Nc2cccc3c2[C@@H]2CC[C@H]3C2=C(Cl)Cl)c(C(F)F)n1 (racemic) [Benzovindiflupyr, benzovindiflupyr]",–,–,–,–,–,–,–,71%,–,45%,52%
"Cn1cc(C(=O)Nc2ccccc2-c2cc(F)c(F)c(F)c2)c(C(F)F)n1 [Fluxapyroxad, fluxapyroxad]",–,–,–,–,–,–,–,42%,–,–,41%
"CC(C1CC1)C(O)(Cn1cncn1)c1ccc(Cl)cc1 (stereo not shown) [Cyproconazole, cyproconazole]",–,9%,–,–,7%,34%,80%,–,–,–,–
"Fc1ccc([C@]2(Cn3cncn3)O[C@H]2c2ccccc2Cl)cc1 (racemic) [Epoxiconazole, epoxiconazole]",1%,5%,–,–,–,39%,83%,–,–,–,–
